Laboratory results from patent US10981932B2, “Macrocyclic indole derivatives” (Bayer Aktiengesellschaft, priority 2016, dated 2021).
Structures can show the parent of a compound that is named as a salt. Where two headings read alike, the source gives them in different places.

How the values were obtained:
MV-4-11 = experiment: Anti-proliferative effect (CellTiter-Glo, 72 h), MV-4-11; assay type: cell-based; conditions: MV-4-11 cells, median, read-out: IC50 antiproliferation assay MV-4-11 [M] (median)
How it was run: (§1)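 Cells were treated with compounds for 72 h at 37 °C in a humidified incubator, and viability was measured by CellTiter-Glo luminescence. A parallel day 0 plate, read the same way, gave the time zero baseline.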

SUDHL5 [1] = experiment: Induction of caspase-3/7 activity (Caspase-Glo 3/7), SUDHL5; assay type: cell-based; conditions: caspase-3/7 induction, SUDHL5 cells, 3 h treatment, median
How it was run: (§2)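 DLBCL cells treated with compounds for 3 h at 37 °C, then caspase-3/7 activity read by Caspase-Glo 3/7 luminescence. Medium-only background subtracted; EC50 fitted with C0 fixed at 1 and top set to the reference compound's maximal induction.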

MCL-1 = MCL-1 (Homo sapiens, UniProt Q07820); experiment: Protein-protein interaction assay MCL-1/Noxa BH3 peptide (MCL-1 assay), TR-FRET; assay type: binding; conditions: MBP-MCL-1 / Noxa BH3-derived peptide, median
Sequence of MCL-1 (Q07820 whole entry): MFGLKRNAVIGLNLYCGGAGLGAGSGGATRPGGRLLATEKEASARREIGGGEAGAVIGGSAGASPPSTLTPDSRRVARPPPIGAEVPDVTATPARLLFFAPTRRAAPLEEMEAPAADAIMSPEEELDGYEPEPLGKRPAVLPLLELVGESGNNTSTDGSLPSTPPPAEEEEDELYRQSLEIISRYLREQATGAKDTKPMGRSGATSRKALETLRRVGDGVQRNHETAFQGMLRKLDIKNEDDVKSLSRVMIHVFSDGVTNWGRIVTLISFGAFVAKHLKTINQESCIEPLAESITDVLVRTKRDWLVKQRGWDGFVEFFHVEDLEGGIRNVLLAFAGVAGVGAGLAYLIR
How it was run: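 TR-FRET, 665/622 nm emission ratio (excitation 330–350 nm), measured MCL-1/Noxa complex formation. 1 nM MBP-MCL-1, 50 mM Tris/HCl pH 7, 0.1% BGG, 2 mM DTT. Incubation 1 h at 22 °C, then overnight at 4 °C. IC50 by 4-parameter regression, normalized to DMSO (0%) and no-MCL-1 (100%) controls.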

SUDHL10 [2] = experiment: Induction of cytotoxicity (CellTiter-Glo, 5 h), SUDHL10
A2780 = experiment: Anti-proliferative effect (CellTiter-Glo, 72 h), A2780; assay type: cell-based; conditions: A2780 cells, median, read-out: IC50 antiproliferation assay A2780 [M] (median)
How it was run: as §1

SUDHL10 [3] = experiment: Induction of caspase-3/7 activity (Caspase-Glo 3/7), SUDHL10; assay type: cell-based; conditions: caspase-3/7 induction, SUDHL10 cells, 3 h treatment, median
How it was run: as §2

SUDHL5 [4] = experiment: Anti-proliferative effect (CellTiter-Glo, 72 h), SUDHL5; assay type: cell-based; conditions: SUDHL5 cells, antiproliferation, median, read-out: Antiproli SUDHL5 [M] (median)
How it was run: as §1

SUDHL5 [5] = experiment: Induction of cytotoxicity (CellTiter-Glo, 5 h), SUDHL5
[6] = Homo sapiens, SU-DHL10, 5 h, read-out: Cytotox SUDHL10 [M] (median), SUDHL10 cells, cytotoxicity induction, CellTiter-Glo, 5 h, median
[7] = Homo sapiens, SU-DHL-5, 72 h, 72 h
[8] = Homo sapiens, SU-DHL-5, 5 h, read-out: Cytotox SUDHL5 [M] (median), SUDHL5 cells, cytotoxicity induction, CellTiter-Glo, 5 h, median
[9] = read-out: Cytotox SUDHL5 [M] (median), SUDHL5 cells, cytotoxicity induction, CellTiter-Glo, 5 h, median
[10] = read-out: Cytotox SUDHL10 [M] (median), SUDHL10 cells, cytotoxicity induction, CellTiter-Glo, 5 h incubation, median
[11] = read-out: Cytotox SUDHL5 [M] (median), SUDHL5 cells, cytotoxicity induction, CellTiter-Glo, 5 h incubation, median
[12] = read-out: Cytotox SUDHL10 [M] (median), SUDHL10 cells, cytotoxicity induction, CellTiter-Glo, 5 h, median

IC50 (MV-4-11; Homo sapiens, MV4-11, 72 h)	EC50 (SUDHL5 [1]; Homo sapiens, SU-DHL-5, 3 h)	IC50 (MCL-1)	IC50 (A2780; Homo sapiens, A2780, 72 h)	EC50 (SUDHL10 [3]; Homo sapiens, SU-DHL10, 3 h)	IC50 (SUDHL5 [4]; [7])	EC50 (SUDHL5 [1])	IC50 (MV-4-11)	IC50 (A2780)	EC50 (SUDHL10 [3])	IC50 (SUDHL5 [4]; 72 h incubation)	SMILES	IC50 (SUDHL10 [2]; [6])	IC50 (SUDHL5 [5]; [8])	IC50 (SUDHL10 [2]; [10])	IC50 (SUDHL5 [5]; [11])	other results
5.99e-06 M	1.19 µM	0.00143 µM	1.56e-05 M	3.29 µM	2e-06 M						Cc1c2c(nn1C)COCCCCn1c(C(=O)O)c(CCCOc3cccc4cc(F)ccc34)c3cccc-2c31 (racemic) [Example 301, (rac)-7-{3-[(6-fluoronaphthalen-1-yl)oxy]propyl}-2,3-dimethyl-2,10,11,12,13,15-hexahydropyrazolo[4′,3′:9,10][1,6]oxazacycloundecino[8,7,6-hi]indole-8-carboxylic Acid]	3.5e-06 M	1.6e-06 M			
1.31e-05 M	27.4 µM	0.0331 µM	6.58e-06 M	21.3 µM	5.42e-06 M						Cc1c2c(nn1C)COCCCCn1c(C(=O)O)c(CCCOc3cccc4cc(C(F)(F)F)ccc34)c3cccc-2c31 (racemic) [Example 310]	1.75e-05 M	2.36e-05 M			
1.52e-05 M		0.00331 µM	2.07e-05 M	18.7 µM	5.2e-06 M	3.23 µM					Cc1c2c(nn1C)COCCCCn1c(C(=O)O)c(CCCOc3cccc4cc(Cl)ccc34)c3cccc-2c31 (single isomer, unassigned) [Example 296, (+)-7-{3-[(6-chloronaphthalen-1-yl)oxy]propyl}-2,3-dimethyl-2,10,11,12,13,15-hexahydropyrazolo[4′,3′:9,10][1,6]Oxazacycloundecino[8,7,6-hi]indole-8-carboxylic acid-N-ethylethanamine Salt]	1.43e-05 M				IC50 (SUDHL5 [5]; [9]): 5.31e-06 M
		0.00126 µM	2.25e-05 M			0.674 µM	4.78e-06 M		4.2 µM		Cc1c2c(nn1C)COCCCCn1c(C(=O)O)c(CCCOc3cccc4cc(F)ccc34)c3cccc-2c31 (single isomer, unassigned; enantiomer 2) [Example 302, (+)-7-{3-[(6-fluoronaphthalen-1-yl)oxy]propyl}-2,3-dimethyl-2,10,11,12,13,15-hexahydropyrazolo[4′,3′:9,10][1,6]oxazacycloundecino[8,7,6-hi]indole-8-carboxylic Acid (Enantiomer 2)]					IC50 (SUDHL10 [2]; [12]): 3.49e-06 M; IC50 (SUDHL5 [4]; 72 h): 1.99e-06 M; IC50 (SUDHL5 [5]; [9]): 1.05e-06 M
		0.0268 µM				> 33 µM	2.61e-05 M	2.4e-05 M	> 33 µM		Cc1c2c(nn1C)COCCCCn1c(C(=O)O)c(CCCOc3cccc4cc(F)ccc34)c3cccc-2c31 (single isomer, unassigned; enantiomer 1) [Example 303, (−)-7-{3-((6-fluoronaphthalen-1-yl)oxypropyl}-2,3-dimethyl-2,10,11,12,13,15-hexahydropyrazolo[4′,3′:9,10][1,6]oxazacycloundecino[8,7,6-hi]indole-8-carboxylic Acid (Enantiomer 1)]					IC50 (SUDHL10 [2]; [12]): > 3.3e-05 M; IC50 (SUDHL5 [4]; 72 h): 6.97e-06 M; IC50 (SUDHL5 [5]; [9]): > 3.3e-05 M
	24.3 µM	0.0563 µM	> 3.3e-05 M	> 33 µM	1.38e-05 M	> 33 µM	1.53e-05 M				COc1ccc2c(CCCOc3cccc4ccccc34)c(C(=O)O)n3c2c1-c1c(nn(C)c1C)COCCCC3 (single isomer, unassigned; enantiomer 1) [Example 350, 4-methoxy-2,3-dimethyl-7-[3-(naphthalen-1-yloxy)propyl]-2,10,11,12,13,15-hexahydropyrazolo[4′,3′:9,10][1,6]oxazacycloundecino[8,7,6-hi]indole-8-carboxylic acid-N-ethylethanamine Salt (Enantiomer 1)]	3.11e-05 M	2.07e-05 M			IC50 (SUDHL10 [2]; [12]): > 3.3e-05 M

Second part, the molecule before the results:

SMILES	IC50 (MV-4-11; Homo sapiens, MV4-11, 72 h)	EC50 (SUDHL5 [1]; Homo sapiens, SU-DHL-5, 3 h)	IC50 (MCL-1)	IC50 (A2780; Homo sapiens, A2780, 72 h)	EC50 (SUDHL10 [3]; Homo sapiens, SU-DHL10, 3 h)	IC50 (SUDHL5 [4]; [7])	EC50 (SUDHL5 [1])	IC50 (MV-4-11)	IC50 (A2780)	EC50 (SUDHL10 [3])	IC50 (SUDHL5 [4]; 72 h incubation)	IC50 (SUDHL10 [2]; [6])	IC50 (SUDHL5 [5]; [8])	IC50 (SUDHL10 [2]; [10])	IC50 (SUDHL5 [5]; [11])	other results
CCc1nn(C)c2c1-c1c(C)ccc3c(C(C)CCOc4cccc5ccccc45)c(C(=O)O)n(c13)CCCCOC2 (single isomer, unassigned) [Example 273, 3-ethyl-1,4-dimethyl-7-[4-(naphthalen-1-yloxy)butan-2-yl]-1,10,11,12,13,15-hexahydropyrazolo[4′,3′:9,10][1,6]oxazacycloundecino[8,7,6-hi]indole-8-carboxylic Acid]			0.00589 µM				5.37 µM	4.53e-06 M	4.18e-06 M	15.9 µM	3.74e-06 M			1.62e-05 M	4.58e-06 M	
CCc1nn(C)c2c1-c1c(C)ccc3c(CCCOc4cccc5cc(F)ccc45)c(C(=O)O)n(c13)CCCCOC2 (single isomer, unassigned) [Example 268, (−)-3-ethyl-7-{3-[(6-fluoronaphthalen-1-yl)oxy]propyl}-1,4-dimethyl-1,10,11,12,13,15-hexahydropyrazolo[4′,3′:9,10][1,6]oxazacycloundecino[8,7,6-hi]indole-8-carboxylic Acid]			0.0407 µM				> 33 µM	7.46e-06 M	2.29e-05 M	> 33 µM	7.41e-06 M			> 3.3e-05 M	> 3.3e-05 M	
CN1CCCCn2c(C(=O)O)c(CCCOc3cccc4ccccc34)c3cccc(c32)-c2c(/C=C/F)nn(C)c2C1 (racemic) [Example 225, (rac)-3-[(E)-2-fluoroethenyl]-1,14-dimethyl-7-[3-(naphthalen-1-yloxy)propyl]-10,11,12,13,14,15-hexahydro-1H-pyrazolo[3′,4′:8,9][1,6]diazacycloundecino[10,11,1-hi]indole-8-carboxylic Acid]	1.85e-05 M	16.5 µM	0.0032 µM	2.33e-05 M	19.6 µM					> 33 µM				> 3.3e-05 M		IC50 (SUDHL10 [2]; Homo sapiens, SU-DHL10, 5 h, read-out: Cytotox SUDHL10 [M] (median), SUDHL10 cells, cytotoxicity induction, CellTiter-Glo, 5 h incubation, median): 3.27e-05 M; IC50 (SUDHL5 [4]; Homo sapiens, SU-DHL-5, 72 h, 72 h incubation): 7.21e-06 M; IC50 (SUDHL5 [5]; Homo sapiens, SU-DHL-5, 5 h, read-out: Cytotox SUDHL5 [M] (median), SUDHL5 cells, cytotoxicity induction, CellTiter-Glo, 5 h incubation, median): 1.32e-05 M
CCc1nn(C)c2c1-c1cccc3c(CCCOc4cccc5c(F)cccc45)c(C(=O)O)n(c13)CCCCOC2 (racemic) [Example 298, (rac)-3-ethyl-7-{3-[(5-fluoronaphthalen-1-yl)oxy]propyl}-1-methyl-1,10,11,12,13,15-hexahydropyrazolo[4′,3′:9,10][1,6]oxazacycloundecino[8,7,6-hi]indole-8-carboxylic Acid]	9.4e-06 M	8.78 µM	0.0017 µM	2.66e-05 M	20.5 µM	1.09e-05 M						2.27e-05 M	9.1e-06 M			
CCc1nn(C)c2c1-c1c(C)ccc3c(C(C)CCOc4cccc5ccccc45)c(C(=O)O)n(c13)CCCCOC2 (single isomer, unassigned) [Example 275, 3-ethyl-1,4-dimethyl-7-[4-(naphthalen-1-yloxy)butan-2-yl]-1,10,11,12,13,15-hexahydropyrazolo[4′,3′:9,10][1,6]oxazacycloundecino[8,7,6-hi]indole-8-carboxylic Acid]			3.97 µM				> 33 µM	4.52e-06 M	7.02e-06 M	21.6 µM	3.33e-06 M			2.83e-05 M	> 3.3e-05 M	
Cn1nc(C(F)(F)F)c2c1COCCCCn1c(C(=O)O)c(CCCOc3cccc4ccccc34)c3cccc-2c31 (single isomer, unassigned) [Example 217, 1-methyl-7-[3-(naphthalen-1-yloxy)propyl]-3-(trifluoromethyl)-1,10,11,12,13,15-hexahydropyrazolo[4′,3′:9,10][1,6]oxazacycloundecino[8,7,6-hi]indole-8-carboxylic Acid]			0.00251 µM	> 3.3e-05 M			3.5 µM	1.52e-05 M	2.92e-05 M	13.4 µM	5.58e-06 M			1.58e-05 M	3.92e-06 M	
